According to US9758537B2 (Achillion Pharmaceuticals, Inc., priority 2014, dated 2017):
pIC50: −log10 of the molar value.

Target: Human factor D (Homo sapiens (Human), UniProt P00746)
Test: Human Factor D Assay
Assay type: biochemical
Conditions: human factor D 80 nM, substrate Z-L-Lys-SBzl, DTNB, OD405
Protocol: Human factor D (purified from human serum, Complement Technology, Inc.) at 80 nM final concentration is incubated with test compound at various concentrations for 5 minutes at room temperature in 50 mM Tris, 1M NaCl, pH 7.5. A synthetic substrate Z-L-Lys-SBzl and DTNB (Ellman's reagent) are added to final concentrations of 10 μM each. The increase in color is recorded at OD405 nm in a microplate in kinetic mode over 30 minutes with 30 second time points in a […]. IC50 values are calculated by non-linear regression from the percentage of inhibition of complement factor D activity as a function of test compound concentration.

Human factor D, sequence (P00746 26-253): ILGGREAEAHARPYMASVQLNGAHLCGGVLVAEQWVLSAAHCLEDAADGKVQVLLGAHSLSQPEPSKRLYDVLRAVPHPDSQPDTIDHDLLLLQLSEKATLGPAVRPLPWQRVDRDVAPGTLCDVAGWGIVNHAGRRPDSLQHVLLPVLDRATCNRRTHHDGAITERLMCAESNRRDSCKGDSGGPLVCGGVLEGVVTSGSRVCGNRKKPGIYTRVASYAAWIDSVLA

Structure (SMILES) | pIC50
CCOP(=O)(OCC)c1cc(Cl)c(F)c(CNC(=O)[C@@H]2C[C@@H](F)CN2C(=O)Cn2cc(C(C)=O)c3ccccc32)c1 [Compound 61] | > 6.00
NC(=O)N1CC(NC(=O)[C@@H]2CCC[C@H]2C(=O)NCc2cccc(Cl)c2F)c2ccccc21 (stereo partly drawn) [Compound 26, (1R,2R)-N1-(1-carbamoylindolin-3-yl)-N2-(3-chloro-2-fluorobenzyl)cyclopentane-1,2-dicarboxamide] | < 5.00
O=C(NCc1cccc(Cl)c1F)[C@@H]1C[C@@H](F)CN1C(=O)Cn1nc(I)c2ccncc21 [Compound 52, (2S,4R)-N-(3-chloro-2-fluorobenzyl)-4-fluoro-1-(2-(3-iodo-1H-pyrazolo[3,4-c]pyridin-1-yl)acetyl)pyrrolidine-2-carboxamide] | > 6.00
CC(=O)n1cc(CC(=O)N2C[C@H](F)C[C@H]2C(=O)Nc2cccc(-c3ccccc3Cl)c2F)c2ccsc21 [Compound 90, (2S,4R)-1-(2-(6-acetyl-6H-thieno[2,3-b]pyrrol-4-yl)acetyl)-N-(2′-chloro-2-fluorobiphenyl-3-yl)-4-fluoropyrrolidine-2-carboxamide] | > 6.00
COc1ccc2c(O[C@@H]3C[C@@H](C(=O)NCc4cccc(Cl)c4F)N(C(=O)Cn4cc(C(C)=O)c5ccccc54)C3)cc(-c3ccccc3)nc2c1 [Compound 29, (2S,4R)-1-(2-(3-acetyl-1H-indol-1-yl)acetyl)-N-(3-chloro-2-fluorobenzyl)-4-(7-methoxy-2-phenylquinolin-4-yloxy)pyrrolidine-2-carboxamide] | < 5.00
NC(=O)c1nn(CC(=O)N2C[C@H](F)C[C@H]2C(=O)Nc2cccc(-c3c(F)cc(F)cc3Cl)c2)c2cnccc12 [Compound 101, 1-(2-((2S,4R)-2-(2′-chloro-4′,6′-difluorobiphenyl-3-ylcarbamoyl)-4-fluoropyrrolidin-1-yl)-2-oxoethyl)-1H-pyrazolo[3,4-c]pyridine-3-carboxamide] | > 6.00
CC(=O)c1cn(CC(=O)N2C[C@H](F)C[C@H]2C(=O)Nc2cccc(-c3ccccc3Cl)c2F)c2c(C#Cc3ncc(F)cn3)cccc12 [Compound 124, (2S,4R)-1-(2-(3-acetyl-7-((5-fluoropyrimidin-2-yl)ethynyl)-1H-indol-1-yl)acetyl)-N-(2′-chloro-2-fluorobiphenyl-3-yl)-4-fluoropyrrolidine-2-carboxamide] | > 6.00
NC(=O)c1nn(CC(=O)N2C[C@H](F)C[C@H]2C(=O)Nc2cccc(-c3c(F)cc(F)cc3Cl)n2)c2cnccc12 [Compound 100, 1-(2-((2S,4R)-2-(6-(2-chloro-4,6-difluorophenyl)pyridin-2-ylcarbamoyl)-4-fluoropyrrolidin-1-yl)-2-oxoethyl)-1H-pyrazolo[3,4-c]pyridine-3-carboxamide] | > 6.00
CC(=O)c1cn(CC(=O)N2C[C@H](F)C[C@H]2C(=O)N(C)Cc2cccc(Cl)c2F)c2ccccc12 [Compound 34, (2S,4R)-1-(2-(3-acetyl-1H-indol-1-yl)acetyl)-N-(3-chloro-2-fluorobenzyl)-4-fluoro-N-methylpyrrolidine-2-carboxamide] | < 5.00
CC(=O)c1cn(CC(=O)N2C[C@H](F)C[C@H]2C(=O)Nc2cccc(-c3cc(F)c(F)cc3Cl)c2F)c2ccccc12 [Compound 82, (2S,4R)-1-(2-(3-acetyl-1H-indol-1-yl)acetyl)-N-(2′-chloro-2,4′,5′-trifluorobiphenyl-3-yl)-4-fluoropyrrolidine-2-carboxamide] | > 6.00
O=C(NCc1cccc(Cl)c1F)[C@@H]1C[C@@H](F)CN1C(=O)Cn1c2c(c3ccccc31)CCNC2 [Compound 68, (2S,4R)-N-(3-chloro-2-fluorobenzyl)-1-(2-(3,4-dihydro-1H-pyrido[3,4-b]indol-9(2H)-yl)acetyl)-4-fluoropyrrolidine-2-carboxamide] | < 5.00
O=C(NCc1cccc(Cl)c1F)[C@@H]1C[C@@H](F)CN1C(=O)Cn1nc(-c2cn[nH]c2)c2ccncc21 [Compound 73, (2S,4R)-1-(2-(3-(1H-pyrazol-4-yl)-1H-pyrazolo[3,4-c]pyridin-1-yl)acetyl)-N-(3-chloro-2-fluorobenzyl)-4-fluoropyrrolidine-2-carboxamide] | > 6.00
CC(=O)c1cn(CC(=O)N2C[C@H](F)C[C@H]2C(=O)Nc2cccc(SC(F)(F)F)c2)c2cc(O)ccc12 [Compound 48, (2S,4R)-1-(2-(3-acetyl-6-hydroxy-1H-indol-1-yl)acetyl)-4-fluoro-N-(3-(trifluoromethylthio)phenyl)pyrrolidine-2-carboxamide] | > 6.00
CC(=O)n1cc(NC(=O)[C@@H]2C[C@@H](F)CN2C(=O)NCc2cccc(Cl)c2F)c2ccccc21 [Compound 3, (2S,4R)-N2-(1-acetyl-1H-indol-3-yl)-N1-(3-chloro-2-fluorobenzyl)-4-fluoropyrrolidine-1,2-dicarboxamide] | < 5.00
NC(=O)N1C[C@H](F)C[C@H]1Cn1cc(-c2ccc(F)c(Cl)c2)nn1 [Compound 30, (2S,4R)-2-((4-(3-chloro-4-fluorophenyl)-1H-1,2,3-triazol-1-yl)methyl)-4-fluoropyrrolidine-1-carboxamide] | < 5.00
CC(=O)c1cn(C(C)C(=O)N2C[C@H](F)C[C@H]2C(=O)NCc2cccc(Cl)c2F)c2ccccc12 (some centres unmarked) [Compound 55] | < 5.00
CC(=O)c1cn(CC(=O)N2C[C@H](F)C[C@H]2C(=O)Nc2cccc(-c3ccc(F)c(F)c3Cl)c2F)c2ccccc12 [Compound 93, (2S,4R)-1-(2-(3-acetyl-1H-indol-1-yl)acetyl)-N-(2′-chloro-2,3′,4′-trifluorobiphenyl-3-yl)-4-fluoropyrrolidine-2-carboxamide] | > 6.00
CC(=O)c1cn(CC(=O)N2CC(F)C(OCC3CC3)[C@H]2C(=O)NCc2cccc(Cl)c2F)c2cc(O)ccc12 (stereo partly drawn) [Compound 25, (2S)-1-(2-(3-acetyl-6-hydroxy-1H-indol-1-yl)acetyl)-N-(3-chloro-2-fluorobenzyl)-3-(cyclopropylmethoxy)-4-fluoropyrrolidine-2-carboxamide] | > 6.00
C=C(F)c1nn(CC(=O)N2C[C@H](F)C[C@H]2C(=O)NCc2cccc(Cl)c2F)c2cnccc12 [Compound 74, (2S,4R)-N-(3-chloro-2-fluorobenzyl)-4-fluoro-1-(2-(3-(1-fluorovinyl)-1H-pyrazolo[3,4-c]pyridin-1-yl)acetyl)pyrrolidine-2-carboxamide] | > 6.00
NC(=O)c1nn(CC(=O)N2C[C@H](F)C[C@H]2C(=O)Nc2cccc(-c3cc(OC(F)(F)F)ccc3Cl)c2F)c2ccccc12 [Compound 120, 1-(2-((2S,4R)-2-(2′-chloro-2-fluoro-5′-(trifluoromethoxy)biphenyl-3-ylcarbamoyl)-4-fluoropyrrolidin-1-yl)-2-oxoethyl)-1H-indazole-3-carboxamide] | > 6.00
CC(=O)c1cn(CC(=O)N2C[C@H](F)C[C@H]2C(=O)NCc2cc(P(=O)(O)O)cc(Cl)c2F)c2ccccc12 [Compound 63, 3-(((2S,4R)-1-(2-(3-acetyl-1H-indol-1-yl)acetyl)-4-fluoropyrrolidine-2-carboxamido)methyl)-5-chloro-4-fluorophenylphosphonic acid] | > 6.00
NC(=O)c1nn(CC(=O)N2C[C@H](F)C[C@H]2C(=O)Nc2cccc(-c3cc(F)cc(F)c3Cl)c2F)c2ccccc12 [Compound 94, 1-(2-((2S,4R)-2-(2′-chloro-2,3′,5′-trifluorobiphenyl-3-ylcarbamoyl)-4-fluoropyrrolidin-1-yl)-2-oxoethyl)-1H-indazole-3-carboxamide] | > 6.00
CC(=O)n1cc(NC(=O)[C@H]2CC(F)(F)CN2C(=O)NCc2cccc(Cl)c2F)c2ccccc21 [Compound 8, (R)-N2-(1-acetyl-1H-indol-3-yl)-N1-(3-chloro-2-fluorobenzyl)-4,4-difluoropyrrolidine-1,2-dicarboxamide] | < 5.00
CC(=O)c1cn(CC(=O)N2C[C@H](F)[C@@H](OCC3CC3)[C@H]2C(=O)NCc2cccc(Cl)c2F)c2cc(O)ccc12 [Compound 21, (2S,3S,4S)-1-(2-(3-acetyl-6-hydroxy-1H-indol-1-yl)acetyl)-N-(3-chloro-2-fluorobenzyl)-3-(cyclopropylmethoxy)-4-fluoropyrrolidine-2-carboxamide] | > 6.00
O=C(NCc1cccc(Cl)c1F)[C@@H]1C[C@@H](F)CN1C(=O)Cn1cc([N+](=O)[O-])c2ccccc21 [Compound 46, (2S,4R)-N-(3-chloro-2-fluorobenzyl)-4-fluoro-1-(2-(3-nitro-1H-indol-1-yl)acetyl)pyrrolidine-2-carboxamide] | > 6.00
CC(=O)c1cn(CC(=O)N2C[C@H](F)C[C@H]2c2ncc(-c3cccc(Cl)c3)[nH]2)c2ccccc12 [Compound 11, 2-(3-acetyl-1H-indol-1-yl)-1-((2S,4R)-2-(5-(3-chlorophenyl)-1H-imidazol-2-yl)-4-fluoropyrrolidin-1-yl)ethanone] | < 5.00
CC(=O)c1cn(CC(=O)N2C[C@H](F)C[C@H]2C(=O)Nc2cccc(Br)n2)c2ccc(C3(NC(=O)c4ncccn4)CC3)cc12 [Compound 119, N-(1-(3-acetyl-1-(2-((2S,4R)-2-(6-bromopyridin-2-ylcarbamoyl)-4-fluoropyrrolidin-1-yl)-2-oxoethyl)-1H-indol-5-yl)cyclopropyl)pyrimidine-2-carboxamide] | > 6.00
N[C@@H](Cc1c[nH]c2ccccc12)C(=O)N1C[C@H](F)C[C@H]1C(=O)NCc1cccc(Cl)c1F [Compound 39, (2S,4R)-1-((S)-2-amino-3-(1H-indol-3-yl)propanoyl)-N-(3-chloro-2-fluorobenzyl)-4-fluoropyrrolidine-2-carboxamide] | < 5.00
NC(=O)c1nn(CC(=O)N2C[C@H](F)C[C@H]2C(=O)Nc2cccc(-c3ccccc3Cl)c2F)c2c1CCCC2 [Compound 104, 1-(2-((2S,4R)-2-(2′-chloro-2-fluorobiphenyl-3-ylcarbamoyl)-4-fluoropyrrolidin-1-yl)-2-oxoethyl)-4,5,6,7-tetrahydro-1H-indazole-3-carboxamide] | > 6.00
